Source: US20210213120A1, “KRAS PEPTIDE VACCINE COMPOSITIONS AND METHOD OF USE” (THE MEDICAL COLLEGE OF WISCONSIN , INC., priority 2017, published 2021)
No end group written: not given here.

Legend:
[1] = system: tumor infiltrated CD8+ cells and Tregs; assay: T cells in spleen or tumor of K-rasLA1 mice; format: in vivo, mouse; settings: 4~5 weeks after treatment
Experimental: FIG. 8. UAB30 increased tumor infiltrated CD8+ cells and decreased Tregs in tumor. K-rasLA1 mice were treated with control, Kras-vaccine, UAB30 alone or Kras-vaccine and UAB30 and the % CD4+ or CD8+ T cells were assessed in the spleen or tumor of mice at 4˜5 weeks after treatment.
K-rasLA1 mouse develops premalignant lung lesions that progress to multifocal lung adenocarcinomas due to somatic mutations in K-ras, which occurs at the birth of these mice through DNA recombination. […] In this model, vaccination was given when mice were 8˜10 weeks old, at which numerous pleural lesions already formed in lung, yet K-ras vaccination alone significant inhibited lung tumor multiplicity and load in K-rasLA1 mice, decreased tumor numbers from ˜12 to ˜7 per mouse, and tumor load from ˜55 mm3 to ˜30 mm3 (FIG. 7).

[2] = system: K-ras-driven lung cancer syngraft; assay: K-ras-driven lung cancer syngraft tumor model (avasimibe combination); format: in vivo, mouse; settings: tumor volume over time
Experimental: FIG. 10. K-ras vaccine synergize with Avasamibe to inhibit lung tumor progression in K-ras-driven lung cancer syngraft tumor model.
Mice were treated with the combination of K-ras multi-peptide vaccine with avasimibe in a K-ras-driven lung cancer syngraft model. Tumor volume was assessed over time post tumor cell inoculation.
Therefore, we tested the combination of K-ras multi-peptide vaccine with avasimibe in a K-ras-driven lung cancer syngraft model.

[3] = Immune response to KRAS peptides (Table 1)
IFN-γ response = assay: IFN-γ ELISPOT of PD-1 and PD-L1 peptides in naïve mice; format: in vivo, mouse
Experimental: The immunogenicity of PD-1 and PD-L1 were tested in naïve mice using the IFN-γ ELISPOT assay. (P<0.0001, data not shown)
Cancer cells are naturally attacked by cells of the immune system, but can induce a state of tolerance whereby they escape from immune attack, for which immune checkpoint proteins such as PD1, VISTA are important ones mediating this immune escape. Interaction of PD-1 on activated T cells and PD-L1 on cancer cells lead to inhibition of the cytotoxic T cells. Investigators have recently identified spontaneous T cell reactivity against PD-L1 in the tumor microenvironment and in the peripheral blood of patients with metastatic melanoma and healthy donors, PD-L1 reactive CD8 T cells are cytotoxic and can kill cancer cells and immune regulatory cells in vitro, and responsive PD-L1 peptide vaccine has therefore under development. Here, by using a multi-scoring system that combines multiple MHC class II peptide binding algorithms, we identified immunogenic “hotspots”, and selected 7 peptides for PD-L1 and 11 peptides for PD-1 from these immunogenic “hot” regions (see Table 3). We then tested their immunogenicity in naïve mice using the IFN-γ ELISPOT assay.

[4] = system: IFN-γ-secreting splenocytes; assay: IFN-γ ELISPOT screen of single KRAS peptides in naïve mice; format: in vivo, mouse; settings: for IFN-γ response (ELISPOT): naïve mice vaccinated with single KRAS peptide; for IFN-γ response (ELISPOT) / mean IFN-γ-secreting cells: splenocytes pulsed 72 h
Text: FIG. 1A-1C. In vivo screen for peptide candidates by ELISPOT in naïve mice. (A) Immunogenic heatmap for identifying peptides associated with highest binding affinity across multiple MHC class II alleles. Colors represent percentile to highest score from three algorithms for each amino acid from dark red to light blue in the order of rank scores. Color strata are as follows: dark red ≥75% of the highest score; red=50˜75% of the highest score; orange=40˜50% of highest score; yellow=30˜40% of the highest score; green=20˜30% of the highest score; blue ≤20% of the highest score. (B) Representative ELISPOT results showing T cell responses to specific KRAS peptides from mouse splenocytes stimulated with no antigen (first row), negative control peptide (HIV peptide, second row), target peptide (third row), or positive control ConA (fourth row). (C) Quantified ELISPOT results. Then, splenocytes were collected and pulsed with no antigen control, each single KRAS peptide, or negative control peptide (HIV peptide), or positive control ConA. After 72 h of incubation, the ELISPOT assay was performed, plates were scanned, and spot numbers were statistically analyzed. Open bar, ELISPOT reads from KRAS peptide vaccinated animals pulsed with specific KRAS peptide; blue bar, ELISPOT reads from animals injected only with adjuvant and pulsed with specific KRAS peptide; black bar, ELISPOT reads from three most significant KRAS peptide vaccinated animals. Data are shown as the mean±SE of three replicate wells per group, n=5.
Mice were vaccinated with 50 μg of each peptide. Phosphate buffered saline (PBS) was added to bring the total volume to 50 μL/mouse. An equal amount of adjuvant (Complete Freund's Adjuvant or Incomplete Freund's Adjuvant) was added to bring the total volume to 100 μL/mouse. Mice were injected subcutaneously on the shoulder at 7 weeks of age, and boosting vaccination was given every two weeks for the first three boosting and every 4 weeks for the last three boosting as shown in FIG. 2A. Transgene Kras was initiated with Dox diet (625 mg/kg diet) one week after the fourth vaccination, and Dox diet was given throughout of the study.
(§1) Cell suspensions from whole spleens were filtered through a 70 μm cell strainer (BD) and subjected to red blood cell lysis using ACK lysis buffer. 1.5˜3.0×10^4 cells were plated into individual wells of a MAIPS4510 Multiscreen 96 well plate previously coated with anti-interferon γ […] antibody and containing media with either peptide, positive control (concanavalin A) or negative control (HIV peptide, or no antigen). After 72 hours, plates were washed and a secondary antibody (BD) was added and incubated on the plate overnight at 4 degrees Celsius. Wells were then washed with PBS and HRP streptavidin was added. Following 1 h incubation, the plate was developed using AEC substrate for between 5-25 minutes. The plate was subsequently gently washed under cold running tap water. When dry, an automated plate reader system (CTL Technologies) was used to image the plates and quantify spot number.
Using a multi-scoring system that combines multiple MHC class II peptide binding algorithms, immunogenic “hotspots” were identified; 11 peptides (Table 2) were selected; their immunogenicity was evaluated in naïve mice using the IFN-γ ELISPOT assay as previously reported. The KRAS 17-mer peptide (p5-21) that covers the mutation in codon 12, and its G12D mutant (p5-21 G12D) were also selected as robust peptides to stimulate immune response. […] To include peptides against both wild-type and mutant KRAS, also based on a high degree of homology between human and mouse KRAS, peptides p5-21 (SEQ ID NO:2), p5-21 G12D (SEQ ID NO:1), p17-31 (SEQ ID NO:4), and p78-92 (SEQ ID NO:6) were chosen to formulate a multipeptide KRAS vaccine in the preventive efficacy study.

[5] = system: IFN-γ-secreting splenocytes; assay: IFN-γ ELISPOT of splenocytes from vaccinated CCSP-KRAS^G12D mice at end of study (epitope spreading); format: in vivo, mouse; settings: for mean IFN-γ-secreting cell responses: splenocytes of mice vaccinated with KRAS combination vaccine, pulsed with the named peptide(s) 72 h
Experimental: FIG. 3. Epitope spreading tested by IFN-γ ELISPOT. Mice were vaccinated with the KRAS combination vaccine (p5-21, p5-21 G12D, p17-31, and p78-92). Then splenocytes were collected and pulsed with KRAS combo peptides, each single KRAS peptide, unvaccinated KRAS peptide p75-89, combo IGFR peptides, or Tert peptide. After 72 h of incubation, the ELISPOT assay was performed, plates were scanned, and spot numbers were statistically analyzed.
as §1
In order to examine the specific immunity that confers the protective effect of the KRAS vaccine, an IFN-γELISPOT assay of splenocytes isolated from adjuvant alone and vaccinated CCSP-KRAS^G12D mice was performed at the end of the study. […] The mean IFN-γ-secreting cell responses were 216 in the pooled KRAS peptides group, and 36, 40, 116, and 52 to individual peptides p5-21, p5-21 G12D, p17-31, and p78-92, respectively. […] There was no evidence of general immune hyperactivity stimulation as none of the animals responded to an irrelevant naïve antigen, further supporting the notion that the immune response detected in the vaccinated group was highly specific to the KRAS vaccine.

For `CC(=C/C=C/C(C)=C/C(=O)O)/C=C1\CCCc2ccccc21` [UAB30], the Tregs in tumors [1] was “decreased” and the “infiltrated CD8+ cells in tumors” value [1] was “significantly increased”.
With `CC(C)c1cc(C(C)C)c(CC(=O)NS(=O)(=O)Oc2c(C(C)C)cccc2C(C)C)c(C(C)C)c1` [avasimibe] the tumor growth inhibition [2] was “effective in inhibiting tumor growth”.
With AGGVGKSALTIQLLQNHFVDE [p11s] the Immune response [3] was “Yes”.
In the case of AGGVGKSALTIQLLQNHFVDEYD [p11], the Immune response [3] is reported as “Yes”.
In the case of CHLLRAFTITAPKDL [mPDL1-13], the “IFN-γ response, peptides against PD-L1” value (IFN-γ response) is reported as “strongest IFN-γ response”.
In the case of DAFYTLVREIRKHKE [p154-168], the “IFN-γ response (ELISPOT)” value [4] is reported as “much weaker response”.
With FLCVFAINNTKSFED [p78-92] the “IFN-γ response (ELISPOT)” value [4] was “strongest IFN-γ response”, the Immune response [3] was “Yes” and the “mean IFN-γ-secreting cell responses” value [5] was 52.
With FYTLVREIRKHKEKM [p156-170] the “IFN-γ response (ELISPOT)” value [4] was “strongest IFN-γ response” and the Immune response [3] was “Yes”.
In the case of GEGFLCVFAINNTKS [p75-89], the “IFN-γ response (ELISPOT)” value [4] is reported as “much weaker response” and the “IFN-γ response to non-vaccine KRAS peptide” value ([5]; splenocytes of vaccinated animals) is reported as “strong response”.
For KLVVVGADGVGKSALTI [p5-21 G12D], the “mean IFN-γ-secreting cells” value ([4]; naïve mice) was “around 100 spots per well (SPW)”, the Immune response [3] was “Yes” and the “mean IFN-γ-secreting cell responses” value [5] was 40.
In the case of KLVVVGAGGVGKSAL [p5-19], the “response relative to p5-21” value ([4]; IFN-γ ELISPOT, naïve mice) is reported as “less than 50%”.
For KLVVVGAGGVGKSALTI [p5-21], the “IFN-γ response (ELISPOT)” value [4] was “strongest IFN-γ response”, the “mean IFN-γ-secreting cells” value ([4]; naïve mice) was “around 100 spots per well (SPW)” and the Immune response [3] was “Yes”. For the same compound, the “mean IFN-γ-secreting cell responses” value [5] was 36.
With KLVVVGAVGVGKSALTI [P5-21G12V] the Immune response [3] was “Yes”.
In the case of LAVFCSTSMSEARGA [mPD1-193], the “IFN-γ response, peptides for PD-1” value (IFN-γ response) is reported as “strongest IFN-γ response”.
With LPATHPPQNRTHWVL [mPDL1228] the “IFN-γ response, peptides against PD-L1” value (IFN-γ response) was “strongest IFN-γ response” and the “IFN-γ response, peptides for PD-1” value (IFN-γ response) was “strongest IFN-γ response”.
In the case of PQHSNFRGRASLPKD [mPDL1-76], the “IFN-γ response, peptides against PD-L1” value (IFN-γ response) is reported as “strongest IFN-γ response”.
With QDARFQIIQLPNRHD [mPD1-94] the “IFN-γ response, peptides for PD-1” value (IFN-γ response) was “strongest IFN-γ response”.
For SALTIQLIQNHFVDE [p17-31], the “IFN-γ response (ELISPOT)” value [4] was “strongest IFN-γ response”, the Immune response [3] was “Yes” and the “mean IFN-γ-secreting cell responses” value [5] was 116.
With SWQSGWLLEVPNGPW [mPD1-21] the “IFN-γ response, peptides for PD-1” value (IFN-γ response) was “strongest IFN-γ response”.
In the case of “TgegFLCVFAINNTKSFED (TGEGFLCVFAINNTKSFED) [P75]”, the Immune response [3] is reported as “Yes”.
For VGAGGVGKSALTIQLLQNHFVDEYD [p9], the Immune response [3] was “Yes”.
In the case of “kSALTIQLIQNHFVDEyd (KSALTIQLIQNHFVDEYD; not fully specified (residues 1, 17, 18); printed as kSALTIQLIQNHFVDEyd) [P16]”, the Immune response [3] is reported as “Yes”.
